Measured values: patent US10463671B2, “Combination therapy for treating cancer” (Epizyme, Inc., priority 2013, dated 2019)

System: glucocorticoid signaling genes in SU-DHL10 cells
Assay: RT2 Glucocorticoid Signaling PCR array
Assay type: cell-based
Parameters: IL10 Ct Values / TNF Ct Values: unit not given here
Conditions: SUDHL10, 4 days

## CCN(c1cc(-c2ccc(CN3CCOCC3)cc2)cc(C(=O)NCc2c(C)cc(C)[nH]c2=O)c1C)C1CCOCC1 [Compound 44]
  ACTB Ct Values: 14.828
  ADARB1 Ct Values: 31.215
  AFF1 Ct Values: 29.849
  AK2 Ct Values: 20.974
  AMPD3 Ct Values: 27.654
  ANGPTL4 Ct Values: 32.107
  ANXA4 Ct Values: 24.961
  ARID5B Ct Values: 28.208
  ASPH Ct Values: 23.837
  ATF4 Ct Values: 20.607
  B2M Ct Values: 19.147
  BCL6 Ct Values: 22.639
  CEBPA Ct Values: 28.900
  CEBPB Ct Values: 26.624
  CREB1 Ct Values: 23.809
  CREB3 Ct Values: 26.452
  CREB3L4 Ct Values: 26.139
  CYB561 Ct Values: 37.004
  DDIT4 Ct Values: 26.109
  DUSP1 Ct Values: 31.300
  EHD3 Ct Values: 26.768
  FKBP5 Ct Values: 22.883
  FOSL2 Ct Values: 32.931
  GAPDH Ct Values: 17.793
  GDPD1 Ct Values: 30.943
  GOT1 Ct Values: 25.306
  H6PD Ct Values: 28.126
  HNRPLL Ct Values: 23.764
  HPRT1 Ct Values: 20.615
  IL1RN Ct Values: 32.182
  IL6R Ct Values: 33.807
  IL10 Ct Values: 32.505
  KLF9 Ct Values: 32.525
  KLF13 Ct Values: 24.536
  LOX Ct Values: 35.385
  MERTK Ct Values: 34.652
  MT2A Ct Values: 37.225
  NFKBIA Ct Values: 23.654
  NR3C1 Ct Values: 23.754
  PDCD7 Ct Values: 25.123
  PDP1 Ct Values: 26.175
  PER1 Ct Values: 27.710
  PER2 Ct Values: 24.780
  PIK3R1 Ct Values: 24.661
  PLEKHF1 Ct Values: 28.979
  POU2F1 Ct Values: 25.842
  POU2F2 Ct Values: 25.098
  RASA3 Ct Values: 24.277
  RGS2 Ct Values: 25.587
  RHOB Ct Values: 27.829
  RHOJ Ct Values: 36.530
  RPLP0 Ct Values: 16.821
  SESN1 Ct Values: 27.480
  SGK1 Ct Values: 25.358
  SLC10A6 Ct Values: 37.060
  SLC19A2 Ct Values: 30.597
  SLC22A5 Ct Values: 30.263
  SNTA1 Ct Values: 27.003
  SPHK1 Ct Values: 27.804
  SPSB1 Ct Values: 26.133
  STAT5A Ct Values: 25.275
  STAT5B Ct Values: 24.281
  TBL1XR1 Ct Values: 21.846
  TNF Ct Values: 23.725
  TNFAIP3 Ct Values: 27.677
  TSC22D3 Ct Values: 28.871
  USP2 Ct Values: 23.434
  USP54 Ct Values: 27.789
  VDR Ct Values: 29.514
  VLDLR Ct Values: 32.904
  ZFP36 Ct Values: 26.643
  ZHX3 Ct Values: 26.305
  ZNF2B1 Ct Values: 23.857
Normalized to B2M
  ACTB ΔCT (B2M): −4.319
  ADARB1 ΔCT (B2M): 12.068
  AFF1 ΔCT (B2M): 10.702
  AK2 ΔCT (B2M): 1.827
  AMPD3 ΔCT (B2M): 8.507
  ANGPTL4 ΔCT (B2M): 12.960
  ANXA4 ΔCT (B2M): 5.814
  ARID5B ΔCT (B2M): 9.061
  ASPH ΔCT (B2M): 4.690
  ATF4 ΔCT (B2M): 1.460
  B2M ΔCT (B2M): 0.000
  BCL6 ΔCT (B2M): 3.492
  CEBPA ΔCT (B2M): 9.753
  CEBPB ΔCT (B2M): 7.477
  CREB1 ΔCT (B2M): 4.662
  CREB3L4 ΔCT (B2M): 6.992
  CREB3 ΔCT (B2M): 7.305
  CYB561 ΔCT (B2M): 17.857
  DDIT4 ΔCT (B2M): 6.962
  DUSP1 ΔCT (B2M): 12.153
  EHD3 ΔCT (B2M): 7.621
  FKBP5 ΔCT (B2M): 3.736
  FOSL2 ΔCT (B2M): 13.784
  GAPDH ΔCT (B2M): −1.354
  GDPD1 ΔCT (B2M): 11.796
  GOT1 ΔCT (B2M): 6.159
  H6PD ΔCT (B2M): 8.979
  HNRPLL ΔCT (B2M): 4.617
  HPRT1 ΔCT (B2M): 1.468
  IL1RN ΔCT (B2M): 13.035
  IL6R ΔCT (B2M): 14.660
  IL10 ΔCT (B2M): 13.358
  KLF9 ΔCT (B2M): 13.378
  KLF13 ΔCT (B2M): 5.389
  LOX ΔCT (B2M): 16.238
  MERTK ΔCT (B2M): 15.505
  MT2A ΔCT (B2M): 18.078
  NFKBIA ΔCT (B2M): 4.507
  NR3C1 ΔCT (B2M): 4.617
  PDCD7 ΔCT (B2M): 5.976
  PDP1 ΔCT (B2M): 7.028
  PER1 ΔCT (B2M): 8.563
  PER2 ΔCT (B2M): 5.633
  PIK3R1 ΔCT (B2M): 5.514
  PLEKHF1 ΔCT (B2M): 9.832
  POU2F1 ΔCT (B2M): 6.695
  POU2F2 ΔCT (B2M): 5.951
  RASA3 ΔCT (B2M): 5.130
  RGS2 ΔCT (B2M): 6.440
  RHOB ΔCT (B2M): 8.682
  RHOJ ΔCT (B2M): 17.383
  RPLP0 ΔCT (B2M): −2.326
  SESN1 ΔCT (B2M): 8.333
  SGK1 ΔCT (B2M): 6.211
  SLC10A6 ΔCT (B2M): 17.913
  SLC19A2 ΔCT (B2M): 11.450
  SLC22A5 ΔCT (B2M): 11.116
  SNTA1 ΔCT (B2M): 7.856
  SPHK1 ΔCT (B2M): 8.657
  SPSB1 ΔCT (B2M): 6.986
  STAT5A ΔCT (B2M): 6.128
  STAT5B ΔCT (B2M): 5.134
  TBL1XR1 ΔCT (B2M): 2.699
  TNF ΔCT (B2M): 4.578
  TNFAIP3 ΔCT (B2M): 8.530
  TSC22D3 ΔCT (B2M): 9.724
  USP2 ΔCT (B2M): 4.287
  USP54 ΔCT (B2M): 8.642
  VDR ΔCT (B2M): 10.367
  VLDLR ΔCT (B2M): 13.757
  ZFP36 ΔCT (B2M): 7.496
  ZHX3 ΔCT (B2M): 7.158
  ZNF2B1 ΔCT (B2M): 4.710
Vs DMSO
  ARID5B ΔΔCT: 0.650
  EHD3 ΔΔCT: −0.885
  FKBP5 ΔΔCT: 0.042
  PIK3R1 ΔΔCT: 0.431
  SLC19A2 ΔΔCT: −1.143
  USP54 ΔΔCT: −0.064
